Experimental findings from article PMC3914206 are described below.

The target in experiment [1] is T1, panel of 442 kinases (Homo sapiens, UniProt P22607, G697C).
T1 construct: purchased KINOMEscan
Format: binding. The following applies: Compound Concentration 10 µM. The source says: (§1) We assessed the selectivity of members of this scaffold using the KINOMEscan methodology across a near comprehensive panel of 442 kinases [[18,27]].

Experiment [2] addresses T2, panel of 442 kinases (Homo sapiens, UniProt Q32MK0).
T2 construct: purchased KINOMEscan
T2 sequence (Q32MK0 1-819): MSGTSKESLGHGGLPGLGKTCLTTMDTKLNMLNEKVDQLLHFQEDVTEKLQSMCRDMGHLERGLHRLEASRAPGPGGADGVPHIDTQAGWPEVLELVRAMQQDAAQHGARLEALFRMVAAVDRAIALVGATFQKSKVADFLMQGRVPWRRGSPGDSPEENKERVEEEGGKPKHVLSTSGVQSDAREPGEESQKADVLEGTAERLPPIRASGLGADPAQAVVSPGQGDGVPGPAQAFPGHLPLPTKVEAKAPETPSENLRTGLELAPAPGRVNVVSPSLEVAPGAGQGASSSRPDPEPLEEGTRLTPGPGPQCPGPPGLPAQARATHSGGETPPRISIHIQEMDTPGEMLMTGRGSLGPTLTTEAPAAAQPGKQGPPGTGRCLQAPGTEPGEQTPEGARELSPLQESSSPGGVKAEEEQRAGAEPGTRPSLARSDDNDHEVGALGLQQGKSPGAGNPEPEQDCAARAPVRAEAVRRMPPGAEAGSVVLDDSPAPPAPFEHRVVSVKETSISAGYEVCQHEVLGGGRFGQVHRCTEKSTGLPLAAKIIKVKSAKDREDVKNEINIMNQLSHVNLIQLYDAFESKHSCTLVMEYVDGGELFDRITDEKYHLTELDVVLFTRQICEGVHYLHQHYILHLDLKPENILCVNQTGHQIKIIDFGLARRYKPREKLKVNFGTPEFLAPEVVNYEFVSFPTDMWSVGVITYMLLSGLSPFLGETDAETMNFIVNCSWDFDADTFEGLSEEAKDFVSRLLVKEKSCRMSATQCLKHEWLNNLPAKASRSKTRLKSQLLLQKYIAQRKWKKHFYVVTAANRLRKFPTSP
In kind it is binding. The following applies: Compound Concentration 10 µM.
Description: as §1

T1 sequence (P22607 23-806 G697C): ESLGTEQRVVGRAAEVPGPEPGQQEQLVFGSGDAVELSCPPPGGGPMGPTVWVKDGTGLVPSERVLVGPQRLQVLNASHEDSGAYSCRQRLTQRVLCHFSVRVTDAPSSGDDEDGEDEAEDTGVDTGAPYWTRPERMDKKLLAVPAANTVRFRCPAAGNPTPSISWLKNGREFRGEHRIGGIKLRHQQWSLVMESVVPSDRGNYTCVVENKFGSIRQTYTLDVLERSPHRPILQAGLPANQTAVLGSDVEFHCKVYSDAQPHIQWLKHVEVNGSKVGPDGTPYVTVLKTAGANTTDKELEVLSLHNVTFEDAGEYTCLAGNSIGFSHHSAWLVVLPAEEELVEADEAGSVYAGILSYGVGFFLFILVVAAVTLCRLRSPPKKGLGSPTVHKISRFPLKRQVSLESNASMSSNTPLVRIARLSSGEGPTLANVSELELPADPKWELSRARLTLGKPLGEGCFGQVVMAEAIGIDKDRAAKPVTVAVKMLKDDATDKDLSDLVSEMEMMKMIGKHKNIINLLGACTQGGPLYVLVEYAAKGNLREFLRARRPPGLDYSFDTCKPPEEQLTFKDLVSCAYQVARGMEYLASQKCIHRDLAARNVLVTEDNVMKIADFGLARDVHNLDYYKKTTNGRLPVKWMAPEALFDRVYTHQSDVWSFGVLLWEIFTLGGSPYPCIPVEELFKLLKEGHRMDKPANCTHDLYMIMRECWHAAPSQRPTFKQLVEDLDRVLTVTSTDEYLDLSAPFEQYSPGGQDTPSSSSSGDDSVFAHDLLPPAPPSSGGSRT

For the molecule `COc1cc(C(=O)N2CCC(N3CCN(C)CC3)CC2)ccc1Nc1ncc2c(n1)N(C)c1ccccc1C(=O)N2C` [15 (LRRK2-IN-1)], the “KINOMEscan: FGFR3(G697C)” value at panel of 442 kinases [1] was 85. Further, the “KINOMEscan: MLCK” value at panel of 442 kinases [2] was 100.

For `COc1cc(C(=O)N2CCC(N3CCN(C)CC3)CC2)ccc1Nc1ncc2c(n1)N1CCc3cccc(c31)C(=O)N2C` [Compound 24], the “KINOMEscan: FGFR3(G697C)” value on panel of 442 kinases [1] was 80.

Take `COc1cc(C(=O)N2CCC(N3CCN(C)CC3)CC2)ccc1Nc1ncc2c(n1)N(C1CCCC1)c1ccccc1C(=O)N2C` [Compound 25, 11-cyclopentyl-2-((2-methoxy-4-(4-(4-methylpiperazin-1-yl)piperidine-1-carbonyl)phenyl)amino)-5-methyl-5H-benzo[e]pyrimido[5,4-b][1,4]diazepin-6(11H)-one]: the “KINOMEscan: FGFR3(G697C)” value at panel of 442 kinases [1] worked out at 100. Besides, the “KINOMEscan: MLCK” value at panel of 442 kinases [2] worked out at 100. In the case of `CCOc1cc(C(=O)N2CCC(N3CCN(C)CC3)CC2)ccc1Nc1ncc2c(n1)N(C1CCCC1)c1ccccc1C(=O)N2C` [Compound 26], at panel of 442 kinases [1], the “KINOMEscan: FGFR3(G697C)” value is reported as 100. The “KINOMEscan: MLCK” value at panel of 442 kinases [2] was 100.
